Source: PMC3578765 (PLoS Neglected Tropical Diseases, 2013)
Entries after “also recorded” stand apart in the source; their conditions may differ. Where two headings read alike, the source gives them in different places.

Legend:
[1] = test system: DENV1 (Den1 BR/90) infection in Huh-7.5; assay: image-based dengue HT/HCA, 10-pt dose-response hit confirmation, DENV1; type: cell-based; settings: Dengue virus, read-out: EC50 DENV1
Experimental: (§1) An immunofluorescence assay (IFA) used to detect dengue infection was optimized for the dengue HT/HCA. Briefly, cells were fixed with 4% (w/v) paraformaldehyde (PFA) for 20 min at room temperature (Rm T). PFA-fixed cells were treated with 0.25% (v/v) Triton-X for 20 min at Rm T. DENV-infected cells were detected by probing with 4G2 mAb prepared in blocking buffer: DPBS containing 5% FBS for 30 min at 37°C, followed by AlexaFluor-conjugated goat anti-mouse IgG (H+L) (Invitrogen Molecular Probes, USA) prepared in blocking buffer for 30 min at 37°C. Cell nuclei counterstained with 5 µg/mL 4′,6-diamidino-2-phenylindole (DAPI, Sigma-Aldrich, USA). Two washing cycles of DPBS was done after each step of the IFA. After the final washing, digital images were acquired using a high-throughput confocal fluorescence imaging system (Evotec Technologies High-Throughput Cell Analyzer Opera, Perkin Elmer, USA). The digital images were taken from 3 different fields of each well at 20× magnification.
(§2) Acquired images were analyzed using our in-house developed image-mining platform (IM). This platform is designed to do high-content screening and directly access the database of images that were sequentially analyzed with specially designed algorithms developed as a customized plug-in to the IM platform. The results of all the analyses were stored in a centralized database. […] One channel (DAPI-channel) captures the signal emitted by DAPI-stained nuclei at 450 nm, while the other channel (A488-channel) captures the signal emitted by the AlexaFluor 488 dye bound to the dengue E protein-antibody complexes confined in the cytoplasm of dengue-infected cells at 540 nm. To define the percentage of dengue-infected cells and, conversely the non-infected cells, a modified watershed method was applied. Compared to the original watershed algorithm that uses the morphological gradient image, a weighted gradient image is used for the topographic surface, whose weights are defined as the ridge values computed from the eigen values of the original image. The percentage of non-infected cells, which is also defined as the percent inhibition or percent activity, is derived by using the formula: [1−(A488-positive cells/total cells)]×100%.
(§3) The BioFocus kinase inhibitor library were screened against DENV1, DEN2, DENV3 and DENV4 at 10 µM in 0.5% (v/v) DMSO. MOCK-infected Huh-7.5 and IFN-α2A (500 U/mL) were used as positive controls, and the 0.5% DMSO vehicle was used as negative control. Four sets of 15 384-well plates (13 plates designated for test compounds and 2 plates designated for DMSO vehicle control) were used for the primary screening of the BioFocus kinase inhibitor library against each dengue serotype. Each of the 4,000 compounds in the library was tested in single wells. For data normalization and quality control of the screening, each test compound plate contained 16 replicates of the positive and negative controls. After dispensing the test compounds IFN-α2A and DMSO vehicle in the 384-well plates, Huh-7.5 was mixed with DENV1, DENV2, DENV3, or DENV4 to achieve a M.O.I. of 0.5 and dispensed at 5×10^3 cells/well using the Thermo Scientific WellMate automated liquid dispenser. For the MOCK-infected Huh-7.5, the cells were mixed with VM and dispensed under the same conditions as previously stated. Virus infection in the presence of the compounds proceeded at 37°C, 5% CO2 for 96 hrs. Compound activity based on percent inhibition and cell toxicity was assessed by IFA and IM analysis as described above. Scatter-plot distribution of the entire screening was generated using TIBCO Spotfire 4.5.0 (TIBCO Software Inc., Somerville, MA).
(§4) The calculated activity was normalized to a percent inhibition (PI) based on the MOCK-infected cells (100% activity, or zero infection) and dengue-infected cells (0% activity, or maximum measured infection percentage) controls according to the formula: [drawing 1] where: PImeasured - percent inhibition of test compound […]

[2] = test system: DENV2 (BR DEN2 01-01) infection in Huh-7.5; assay: image-based dengue HT/HCA, 10-pt dose-response hit confirmation, DENV2; type: cell-based; settings: Dengue virus, DENV2, Huh7.5; Huh-7.5, M.O.I. 0.5, 96 hrs; read-out: EC50 DENV2
Experimental: as §1, §2, §3, §4

[3] = test system: DENV3 (BR DEN3 290-02) infection in Huh-7.5; assay: image-based dengue HT/HCA, 10-pt dose-response hit confirmation, DENV3; type: cell-based; settings: Dengue virus, DENV3, Huh7.5; Huh-7.5, M.O.I. 0.5, 96 hrs; read-out: EC50 DENV3
Experimental: as §1, §2, §3, §4

[4] = test system: DENV4 (DEN4 TVP-360) infection in Huh-7.5; assay: image-based dengue HT/HCA, 10-pt dose-response hit confirmation, DENV4; type: cell-based; settings: Dengue virus, DENV4, Huh7.5; Huh-7.5, M.O.I. 0.5, 96 hrs; read-out: EC50 DENV4
Experimental: as §1, §2, §3, §4

[5] = compound toxicity, resazurin reduction assay in uninfected Huh-7.5; type: cell-based; settings: human, uninfected Huh-7.5 cells, Huh-7.5 without viral infection, 10-pt DRC
Experimental: The hits identified from the primary screening were also tested at 10 µM against CHIKV-118-GFP infection in HuH-7 cells and evaluated by resazurin reduction assay (RRA). Resazurin (7-Hydroxy-3H-phenoxazin-3-one 10-oxide) is reduced to the red fluorescent resorufin by redox enzymes produced by viable cells, and is a good indication of metabolic capacity, and by extension cell viability. The amount of converted resorufin was measured as relative fluorescence readout (RFU) at excitation/emission of 531/572 nm using a fluorescence spectrophotometer (Victor^3 V Spectrophotometer, Perkin Elmer, USA). Briefly, cells were inoculated with CHIKV-118-GFP at an M.O.I. of 0.5 and seeded in 384-well plates containing reference and primary hit compounds and incubated under humidified conditions for 72 hrs at 37°C. Resazurin solution was added to a final concentration of 10 µM and further incubated for another 12 hrs prior to measurement of RFU. The percent activity of the compounds, reflected by the percent cell viability, was quantified by normalizing against the RFUs of MOCK-infected cells and CHIKV-118-GFP-infected cells. Compounds resulting in normalized RFU ≥70% were considered as positive hits for anti-CHIKV activity.
To confirm the compound activity against dengue viruses, the selected hits from the primary screening were tested in a 10-pt. DRC (2-fold serial dilution from 50 µM) using the same assay described for the dengue HT/HCA. Each concentration of the hit compounds was tested in duplicate wells. Data generated from image analysis of the 10-pt. DRC was plotted and analyzed using the non-linear regression formula: log (inhibitor) vs. response – […] (4 parameters) in GraphPad Prism 5.04. […] Compound toxicity was determined by testing the hit compounds in a 10-pt. DRC against Huh-7.5 in the absence of viral infection and measuring the cell viability using resazurin reduction assay as described above. […] Confirmed hits were selected based on their Selectivity Index (SI), a dimensionless value that indicates the magnitude between cytotoxic concentration and effective concentration, and is calculated as: SI = CC50/EC50.

[6] = test system: DENV1, DENV2, DENV3 and DENV4 infection in Huh-7.5; assay: image-based dengue HT/HCA, all four serotypes (primary screening and overall activity); type: cell-based, Dengue virus
Experimental: as §1
Acquired images were analyzed using our in-house developed image-mining platform (IM). This platform is designed to do high-content screening and directly access the database of images that were sequentially analyzed with specially designed algorithms developed as a customized plug-in to the IM platform. The results of all the analyses were stored in a centralized database. […]
The BioFocus kinase inhibitor library were screened against DENV1, DEN2, DENV3 and DENV4 at 10 µM in 0.5% (v/v) DMSO. […] Compound activity based on percent inhibition and cell toxicity was assessed by IFA and IM analysis as described above. […]
as §4

[7] = test system: DENV1, DENV2, DENV3 and DENV4 in Huh-7.5; assay: plaque reduction assay; type: cell-based, Dengue virus; settings: 25 µM, Huh-7.5, 30 pfu per well, 7 days
Experimental: Figure 5 Plaque reduction assay. Huh-7.5 cells grown in 24-well tissue culture plate were inoculated with 30 pfu DENV1, DENV2, DENV3 and DENV4 per well and incubated for 7 days in the presence of compound CND1203 at various concentrations. MOCK-infected wells were inoculated with VM only.

[8] = test system: dengue virus infection (M.O.I. 5) in Huh-7.5; assay: time-of-addition assay; type: cell-based; settings: 25 µM added at −2, 0, 0.5, 1, 2, 4 hpi, M.O.I. 5, data not shown
Experimental: Time-of-addition assay, a strategy to determine the stage of inhibition during the viral infection cycle, has been used to characterize the mode of action of some inhibitors of dengue viral entry (NITD Compound 6), viral replication (NITD-982) and early translation (NITD-2636), [47], [53]. The inhibitor is added at different time points during viral infection and monitored for expression of the viral proteins, replication of the genome or production of infectious progeny virions. […] Compound CND1203 was used for the time-of-addition assay, adding 25 µM at different time points (−2 hpi, 0 hpi, 0.5 hpi, 1 hpi, 2 hpi, 4 hpi) of the dengue virus infection (M.O.I. 5) in Huh-7.5. […] Aminothiazole-based compounds have previously been implicated in the inhibition of HCV replication by binding to an allosteric site on the viral polymerase. However, the structure of these active anti-HCV compounds differ from the 2-aminothiazole hit compounds reported in this study in terms of the substitutions on the scaffold. As a consequence, it is unlikely that our hit compounds interact with the viral polymerase.

[9] = test system: BR DEN2 01-01 infection of Huh-7.5; assay: assay validation with reference compounds, 10-pt DRC of percent infection; type: cell-based, Dengue virus; settings: Dengue virus, Huh7.5; percent infection normalized against DENV2-infected Huh-7.5, M.O.I. 0.5; read-out: IC50
Experimental: as §1, §2
(§5) In both validation experiments, Huh-7.5 was mixed with DENV1, DENV2, DENV3 or DENV4 at a M.O.I. of 0.5 or VM only for MOCK-infection and dispensed in designated wells using the Thermo Scientific WellMate automated liquid dispenser. For the first validation experiment, the statistical reliability of the dengue HT/HCA was determined by calculating the Z'-factor for the percent infection or percent inhibition. Briefly, the Z'-factor of a defined parameter is calculated using the formula: 1−[(3σp+3σn)/(|μp−μn|)], where the μp, μn, σp and σn are the means (μ) and standard deviations (σ) of the positive (p) and negative (n) controls. For the second validation experiment, the reference compounds were prepared in 2-fold serial dilutions and dispensed in duplicate wells in the 384-well plate, followed by the Huh-7.5 and DENV mixture (M.O.I. 0.5). Percent infection, percent inhibition, and percent cell number were determined using the customized IM platform plug-in. Scatter-plot distribution was generated using TIBCO Spotfire 4.5.0 (TIBCO Software Inc., Somerville, MA). The ten-point dose-response curves (10-pt DRCs) were plotted using the non-linear regression formula: log (inhibitor) vs. response – variable slope (4 parameters), available in GraphPad Prism 5.04 (GraphPad Software Inc., San Diego, CA). The top and bottom values of the reference compounds were unconstrained when the curve fittings of the 10-pt. DRCs were generated.

in vitro = settings: human
Experimental: Acquired images were analyzed using our in-house developed image-mining platform (IM). This platform is designed to do high-content screening and directly access the database of images that were sequentially analyzed with specially designed algorithms developed as a customized plug-in to the IM platform. The results of all the analyses were stored in a centralized database. […] To define the percentage of dengue-infected cells and, conversely the non-infected cells, a modified watershed method was applied. Compared to the original watershed algorithm that uses the morphological gradient image, a weighted gradient image is used for the topographic surface, whose weights are defined as the ridge values computed from the eigen values of the original image. The percentage of non-infected cells, which is also defined as the percent inhibition or percent activity, is derived by using the formula: [1−(A488-positive cells/total cells)]×100%.
as §5, with “The ten-point dose-response curves (10-pt DRCs) were plotted using the non-linear regression formula: log (inhibitor) vs. response – variable slope (4 parameters), available in GraphPad Prism 5.04 (GraphPad Software Inc., San Diego, CA).” left out
Similarly, the percent cell number was normalized based on the measured cell number in MOCK-infected (100% cell number) controls according to the formula: % cell number = (Cmeasured/μCMOCK-infect)×100%, where Cmeasured is the measured cell number in the test well and μCMOCK-infect is the average cell number in the MOCK-infected controls. The statistical validity of the dengue high-throughput screening was determined by calculating for the Z'-factor using the 0.5% DMSO-treatment and MOCK-infected Huh-7.5 as negative and positive controls, respectively. In addition, other parameters, including DRC of a reference compound, were used to evaluate the assay performance.

[10] = DENV1, Huh7.5, Huh-7.5, M.O.I. 0.5, 96 hrs

SMILES	EC50 [1, 10]	EC50 [2]	EC50 [3]	EC50 [4]	CC50 at 72 h [5]	antiviral activity against all four dengue serotypes [6]	formation of dengue virus plaques [7]	inhibition of dengue infection in time-of-addition assay [8]	EC50 ([1]; Huh7.5, 96 h)	IC50 [9]	CC50 (in vitro)
COc1ccc(CC(N)c2csc(Nc3ncccn3)n2)cc1 (stereo not shown) [CND1201]	0.9 µM	7.6 µM	2.6 µM	5 µM	> 100 µM	strong antiviral activities against all four dengue serotypes	–	–	–	–	–
NC(c1csc(Nc2ncccn2)n1)c1ccccc1Cl (stereo not shown) [CND1203]	1.7 µM	4.1 µM	2.3 µM	5 µM	> 100 µM	strong antiviral activities against all four dengue serotypes; also recorded: strong antiviral activity against all 4 dengue serotypes	blocked the formation of dengue virus plaques	none of the treatments inhibited dengue infection	–	–	–
Nc1ccc(CC(N)c2csc(Nc3ncccn3)n2)cc1 (stereo not shown) [CND1243]	–	6.2 µM	1 µM	7.2 µM	> 100 µM	strong antiviral activities against all four dengue serotypes	–	–	4.1 µM	–	–
NC(=O)c1ncn([C@@H]2O[C@H](CO)[C@@H](O)[C@H]2O)n1 [Ribavirin]	–	–	–	–	–	–	–	–	–	42.4 µM	50.4 µM
